Measurements published in ChEMBL document CHEMBL1201861, “Genomics of Drug Sensitity in Cancer screening data, Wellcome Trust Sanger Institute”.

Key:
Assay in all cases: cells
KYSE-150 cell line = type: functional, cell-based, Homo sapiens; conditions: Homo sapiens, KYSE-150;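 also: growth inhibition of human KYSE-150 cells, read out with a cell viability assay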
Description: SANGER: Inhibition of human KYSE-150 cell growth in a cell viability assay.

Panc1005 = type: functional, cell-based, Homo sapiens; conditions: Homo sapiens, Panc1005;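 also: growth inhibition of human PANC-10-05 cells, measured by a cell viability assay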
Description: SANGER: Inhibition of human PANC-10-05 cell growth in a cell viability assay.

NCI-H1793 = type: functional, cell-based, Homo sapiens; conditions: Homo sapiens, NCI-H1793;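 also: cell growth inhibition, read out by a cell viability assay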
Description: SANGER: Inhibition of human NCI-H1793 cell growth in a cell viability assay.

CAL-85-1 = type: functional, cell-based, Homo sapiens; conditions: Homo sapiens, CAL-85-1;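 also: growth inhibition of human CAL-85-1 cells, read out with a cell viability assay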
Description: SANGER: Inhibition of human CAL-85-1 cell growth in a cell viability assay.

D-542MG = type: functional, cell-based, Homo sapiens; conditions: Homo sapiens, D-542MG
Description: SANGER: Inhibition of human D-542MG cell growth in a cell viability assay.

SNU-449 = type: functional, cell-based, Homo sapiens; conditions: Homo sapiens, SNU-449
Description: SANGER: Inhibition of human SNU-449 cell growth in a cell viability assay.

HMV-2 cell line = type: functional, cell-based, Homo sapiens; conditions: Homo sapiens, HMV-2;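 also: growth inhibition of HMV-II cells, read out with a cell viability assay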
Description: SANGER: Inhibition of human HMV-II cell growth in a cell viability assay.

HSC-4 = type: functional, cell-based, Homo sapiens; conditions: Homo sapiens, HSC-4;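 also: growth inhibition of human HSC-4 cells, read out with a cell viability assay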
Description: SANGER: Inhibition of human HSC-4 cell growth in a cell viability assay.

NCI-H1963 = type: functional, cell-based, Homo sapiens; conditions: Homo sapiens, NCI-H1963;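 also: cell growth inhibition of the human line, determined with a cell viability assay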
Description: SANGER: Inhibition of human NCI-H1963 cell growth in a cell viability assay.

HOS = type: functional, cell-based, Homo sapiens; conditions: Homo sapiens, HOS;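 also: growth inhibition of human HOS cells, read out with a cell viability assay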
Description: SANGER: Inhibition of human HOS cell growth in a cell viability assay.

LC4-1 = type: functional, cell-based, Homo sapiens; conditions: Homo sapiens, LC4-1;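 also: growth inhibition of LC4-1 cells, read out with a cell viability assay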
Description: SANGER: Inhibition of human LC4-1 cell growth in a cell viability assay.

RMG-I = type: functional, cell-based, Homo sapiens; conditions: Homo sapiens, RMG-I;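 also: growth inhibition of human RMG-I cells, read out with a cell viability assay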
Description: SANGER: Inhibition of human RMG-I cell growth in a cell viability assay.

SK-MEL3 = type: functional, cell-based, Homo sapiens, SK-MEL-3; conditions: Homo sapiens, SK-MEL3;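 also: growth inhibition of human SK-MEL-3 cells, read out with a cell viability assay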
Description: SANGER: Inhibition of human SK-MEL-3 cell growth in a cell viability assay.

UACC-812 = type: functional, cell-based, Homo sapiens; conditions: Homo sapiens, UACC-812
Description: SANGER: Inhibition of human UACC-812 cell growth in a cell viability assay.

KOSC-2 = type: functional, cell-based, Homo sapiens; conditions: Homo sapiens, KOSC-2;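 also: growth inhibition of KOSC-2 cells, read out by a cell viability assay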
Description: SANGER: Inhibition of human KOSC-2 cell growth in a cell viability assay.

OAW-42 = type: functional, cell-based, Homo sapiens; conditions: Homo sapiens, OAW-42;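 also: growth inhibition of OAW-42 cells, read out with a cell viability assay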
Description: SANGER: Inhibition of human OAW-42 cell growth in a cell viability assay.

PANC-08-13 = type: functional, cell-based, Homo sapiens; conditions: Homo sapiens, PANC-08-13;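 also: cell growth inhibition, measured with a cell viability assay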
Description: SANGER: Inhibition of human PANC-08-13 cell growth in a cell viability assay.

769-P = type: functional, cell-based, Homo sapiens; conditions: Homo sapiens, 769-P
Description: SANGER: Inhibition of human 769-P cell growth in a cell viability assay.

SR = type: functional, cell-based, Homo sapiens; conditions: Homo sapiens, SR
Description: SANGER: Inhibition of human SR cell growth in a cell viability assay.

COR-L105 = type: functional, cell-based, Homo sapiens; conditions: Homo sapiens, COR-L105;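 also: cell growth inhibition determined with a viability assay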
Description: SANGER: Inhibition of human COR-L105 cell growth in a cell viability assay.

KYSE-410 = type: functional, cell-based, Homo sapiens; conditions: Homo sapiens, KYSE-410;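 also: growth inhibition of KYSE-410 cells, measured through a cell viability readout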
Description: SANGER: Inhibition of human KYSE-410 cell growth in a cell viability assay.

NCI-H1563 = type: functional, cell-based, Homo sapiens; conditions: Homo sapiens, NCI-H1563;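 also: growth inhibition of human NCI-H1563 cells, read out with a cell viability assay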
Description: SANGER: Inhibition of human NCI-H1563 cell growth in a cell viability assay.

U-118-MG = type: functional, cell-based, Homo sapiens; conditions: Homo sapiens, U-118-MG
Description: SANGER: Inhibition of human U-118-MG cell growth in a cell viability assay.

MDA-MB-231 = type: functional, cell-based, Homo sapiens; conditions: Homo sapiens, MDA-MB-231
Description: SANGER: Inhibition of human MDA-MB-231 cell growth in a cell viability assay.

GMS-10 = type: functional, cell-based, Homo sapiens; conditions: Homo sapiens, GMS-10;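 also: growth inhibition of GMS-10 cells, read out as cell viability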
Description: SANGER: Inhibition of human GMS-10 cell growth in a cell viability assay.

EFM-19 = type: functional, cell-based, Homo sapiens; conditions: Homo sapiens, EFM-19;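 also: growth inhibition of human EFM-19 cells, measured in a cell viability assay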
Description: SANGER: Inhibition of human EFM-19 cell growth in a cell viability assay.

RERF-LC-MS = type: functional, cell-based, Homo sapiens; conditions: Homo sapiens, RERF-LC-MS;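 also: growth inhibition of human RERF-LC-MS cells, read out by a cell viability assay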
Description: SANGER: Inhibition of human RERF-LC-MS cell growth in a cell viability assay.

Raji = type: functional, cell-based, Homo sapiens; conditions: Homo sapiens, Raji;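 also: cell viability assay measuring inhibition of Raji cell growth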
Description: SANGER: Inhibition of human Raji cell growth in a cell viability assay.

MKN-7 = type: functional, cell-based, Homo sapiens; conditions: Homo sapiens, MKN-7;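 also: growth inhibition of MKN-7 cells, read out with a cell viability assay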
Description: SANGER: Inhibition of human MKN7 cell growth in a cell viability assay.

SAS = type: functional, cell-based, Homo sapiens; conditions: Homo sapiens, SAS;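 also: growth inhibition of SAS cells, read out with a cell viability assay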
Description: SANGER: Inhibition of human SAS cell growth in a cell viability assay.

HCC1419 = type: functional, cell-based, Homo sapiens; conditions: Homo sapiens, HCC1419;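 also: growth inhibition of human HCC1419 cells, read out as cell viability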
Description: SANGER: Inhibition of human HCC1419 cell growth in a cell viability assay.

CPC-N = type: functional, cell-based, Homo sapiens; conditions: Homo sapiens, CPC-N;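 also: growth inhibition of CPC-N cells, with a cell viability assay as the readout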
Description: SANGER: Inhibition of human CPC-N cell growth in a cell viability assay.

BXPC-3 = type: functional, cell-based, Homo sapiens; conditions: Homo sapiens, BXPC-3;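 also: growth inhibition of human BxPC-3 cells, read out by a cell viability assay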
Description: SANGER: Inhibition of human BxPC-3 cell growth in a cell viability assay.

K052 = type: functional, cell-based, Homo sapiens; conditions: Homo sapiens, K052;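 also: Read-out from a cell viability assay, IC50 reflecting suppression of K052 cell growth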
Description: SANGER: Inhibition of human K052 cell growth in a cell viability assay.

GP5d = type: functional, cell-based, Homo sapiens; conditions: Homo sapiens, GP5d;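 also: growth inhibition of human GP5d cells, read out with a cell viability assay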
Description: SANGER: Inhibition of human GP5d cell growth in a cell viability assay.

NCI-H1573 = type: functional, cell-based, Homo sapiens; conditions: Homo sapiens, NCI-H1573;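 also: growth inhibition of NCI-H1573 cells, read out with a cell viability assay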
Description: SANGER: Inhibition of human NCI-H1573 cell growth in a cell viability assay.

NCI-H1993 = type: functional, cell-based, Homo sapiens; conditions: Homo sapiens, NCI-H1993;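 also: growth inhibition of the cancer cell line, assessed with a cell viability assay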
Description: SANGER: Inhibition of human NCI-H1993 cell growth in a cell viability assay.

MKN-1 = type: functional, cell-based, Homo sapiens; conditions: Homo sapiens, MKN-1;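 also: growth inhibition of human MKN1 cells, read out by a cell viability measurement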
Description: SANGER: Inhibition of human MKN1 cell growth in a cell viability assay.

DK-MG = type: functional, cell-based, Homo sapiens; conditions: Homo sapiens, DK-MG;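 also: growth inhibition of DK-MG cells, read out with a cell viability assay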
Description: SANGER: Inhibition of human DK-MG cell growth in a cell viability assay.

SK-MEL-28 = type: functional, cell-based, Homo sapiens; conditions: Homo sapiens, SK-MEL-28;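 also: growth inhibition of human SK-MEL-28 cells, read out with a cell viability assay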
Description: SANGER: Inhibition of human SK-MEL-28 cell growth in a cell viability assay.

COLO-741 = type: functional, cell-based, Homo sapiens; conditions: Homo sapiens, COLO-741
Description: SANGER: Inhibition of human COLO-741 cell growth in a cell viability assay.

M059J = type: functional, cell-based, Homo sapiens; conditions: Homo sapiens, M059J;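 also: growth inhibition of M059J cells, read out with a cell viability assay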
Description: SANGER: Inhibition of human M059J cell growth in a cell viability assay.

IMR-5 = type: functional, cell-based, Homo sapiens; conditions: Homo sapiens, IMR-5;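 also: growth inhibition of human IMR-5 cells, read out with a cell viability assay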
Description: SANGER: Inhibition of human IMR-5 cell growth in a cell viability assay.

C32 = type: functional, cell-based, Homo sapiens; conditions: Homo sapiens, C32;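 also: cell viability assay, with IC50 reflecting inhibition of C32 cell growth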
Description: SANGER: Inhibition of human C32 cell growth in a cell viability assay.

Cc1cc([N+](=O)[O-])ccc1NS(=O)(=O)c1cc(Cl)ccc1Cl
IC50 (KYSE-150 cell line): 5.06 µM
IC50 (Panc1005): 5.37 µM
IC50 (NCI-H1793): > 32 µM
IC50 (CAL-85-1): 3.61 µM
IC50 (D-542MG): 0.277 µM
IC50 (SNU-449): 5.94 µM
IC50 (HMV-2 cell line): 1.54 µM
IC50 (HSC-4): 12.2 µM
IC50 (NCI-H1963): 8.68 µM
IC50 (HOS): 2.53 µM
IC50 (LC4-1): 13.7 µM
IC50 (RMG-I): 11.5 µM
IC50 (SK-MEL3): 4.68 µM
IC50 (UACC-812): > 32 µM
IC50 (KOSC-2): > 32 µM
IC50 (OAW-42): 2.78 µM
IC50 (PANC-08-13): > 32 µM
IC50 (769-P): 6.73 µM
IC50 (SR): 4.95 µM
IC50 (COR-L105): 6.58 µM
IC50 (KYSE-410): 5.83 µM
IC50 (NCI-H1563): 9.47 µM
IC50 (U-118-MG): > 32 µM
IC50 (MDA-MB-231): 14.3 µM
IC50 (GMS-10): 20.1 µM
IC50 (EFM-19): 5.44 µM
IC50 (RERF-LC-MS): 1.49 µM
IC50 (Raji): 6.44 µM
IC50 (MKN-7): > 32 µM
IC50 (SAS): > 32 µM
IC50 (HCC1419): 3.89 µM
IC50 (CPC-N): > 32 µM
IC50 (BXPC-3): 6.84 µM
IC50 (K052): 14.2 µM
IC50 (GP5d): 1.14 µM
IC50 (NCI-H1573): > 32 µM
IC50 (NCI-H1993): 17.2 µM
IC50 (MKN-1): 4.21 µM
IC50 (DK-MG): 12.3 µM
IC50 (SK-MEL-28): 0.355 µM
IC50 (COLO-741): 4.49 µM
IC50 (M059J): 5.94 µM
IC50 (IMR-5): 11.2 µM
IC50 (C32): < 0.125 µM

Oc1ccc2ccccc2c1SSc1c(O)ccc2ccccc12
IC50 (KYSE-150 cell line): > 32 µM
IC50 (Panc1005): > 32 µM
IC50 (NCI-H1793): > 32 µM
IC50 (CAL-85-1): 7.37 µM
IC50 (D-542MG): 27.2 µM
IC50 (SNU-449): > 32 µM
IC50 (HMV-2 cell line): > 32 µM
IC50 (HSC-4): > 32 µM
IC50 (NCI-H1963): > 32 µM
IC50 (HOS): 4.5 µM
IC50 (LC4-1): > 32 µM
IC50 (RMG-I): > 32 µM
IC50 (SK-MEL3): > 32 µM
IC50 (UACC-812): > 32 µM
IC50 (KOSC-2): > 32 µM
IC50 (OAW-42): > 32 µM
IC50 (PANC-08-13): > 32 µM
IC50 (769-P): > 32 µM
IC50 (SR): 5.37 µM
IC50 (COR-L105): 7.36 µM
IC50 (KYSE-410): > 32 µM
IC50 (NCI-H1563): > 32 µM
IC50 (U-118-MG): > 32 µM
IC50 (MDA-MB-231): > 32 µM
IC50 (GMS-10): > 32 µM
IC50 (EFM-19): 27.3 µM
IC50 (RERF-LC-MS): > 32 µM
IC50 (Raji): > 32 µM
IC50 (MKN-7): > 32 µM
IC50 (SAS): > 32 µM
IC50 (HCC1419): > 32 µM
IC50 (CPC-N): > 32 µM
IC50 (BXPC-3): > 32 µM
IC50 (K052): > 32 µM
IC50 (GP5d): > 32 µM
IC50 (NCI-H1573): > 32 µM
IC50 (NCI-H1993): > 32 µM
IC50 (MKN-1): > 32 µM
IC50 (DK-MG): > 32 µM
IC50 (SK-MEL-28): > 32 µM
IC50 (COLO-741): 18 µM
IC50 (M059J): > 32 µM
IC50 (IMR-5): > 32 µM
IC50 (C32): > 32 µM

C=C(c1ccc(C(=O)O)cc1)c1cc2c(cc1C)C(C)(C)CCC2(C)C [BEXAROTENE]
IC50 (KYSE-150 cell line): > 8 µM
IC50 (Panc1005): > 8 µM
IC50 (NCI-H1793): > 8 µM
IC50 (CAL-85-1): > 8 µM
IC50 (D-542MG): > 8 µM
IC50 (SNU-449): > 8 µM
IC50 (HMV-2 cell line): > 8 µM
IC50 (HSC-4): > 8 µM
IC50 (NCI-H1963): > 8 µM
IC50 (HOS): > 8 µM
IC50 (LC4-1): > 8 µM
IC50 (RMG-I): > 8 µM
IC50 (SK-MEL3): > 8 µM
IC50 (UACC-812): > 8 µM
IC50 (KOSC-2): > 8 µM
IC50 (OAW-42): > 8 µM
IC50 (PANC-08-13): > 8 µM
IC50 (769-P): > 8 µM
IC50 (SR): > 8 µM
IC50 (COR-L105): > 8 µM
IC50 (KYSE-410): > 8 µM
IC50 (NCI-H1563): > 8 µM
IC50 (U-118-MG): > 8 µM
IC50 (MDA-MB-231): > 8 µM
IC50 (GMS-10): > 8 µM
IC50 (EFM-19): > 8 µM
IC50 (RERF-LC-MS): > 8 µM
IC50 (Raji): > 8 µM
IC50 (MKN-7): > 8 µM
IC50 (SAS): > 8 µM
IC50 (HCC1419): > 8 µM
IC50 (CPC-N): > 8 µM
IC50 (BXPC-3): > 8 µM
IC50 (K052): > 8 µM
IC50 (GP5d): > 8 µM
IC50 (NCI-H1573): > 8 µM
IC50 (NCI-H1993): > 8 µM
IC50 (MKN-1): > 8 µM
IC50 (DK-MG): 0.0512 µM
IC50 (SK-MEL-28): > 8 µM
IC50 (COLO-741): > 8 µM
IC50 (M059J): > 8 µM
IC50 (IMR-5): > 8 µM
IC50 (C32): > 8 µM
